In patent US11572373B2, “Maytansinoid-based drug delivery systems” (LADRX CORPORATION, priority 2017, dated 2023):
Where two headings read alike, the source gives them in different places. Marks after values point to notes of the source that are not given here.

Key:
albumin = biological target: T1, albumin (Homo sapiens, UniProt P02768); experiment: in vitro; format: in vitro ADME; conditions: 37° C., 12.0 μM, read-out: % bound (converted)
T1 construct: tissue Zen-Bio; host or cells: pooled human whole blood (K2EDTA, 36 donors) and plasma prepared from it
T1 sequence (P02768 25-609): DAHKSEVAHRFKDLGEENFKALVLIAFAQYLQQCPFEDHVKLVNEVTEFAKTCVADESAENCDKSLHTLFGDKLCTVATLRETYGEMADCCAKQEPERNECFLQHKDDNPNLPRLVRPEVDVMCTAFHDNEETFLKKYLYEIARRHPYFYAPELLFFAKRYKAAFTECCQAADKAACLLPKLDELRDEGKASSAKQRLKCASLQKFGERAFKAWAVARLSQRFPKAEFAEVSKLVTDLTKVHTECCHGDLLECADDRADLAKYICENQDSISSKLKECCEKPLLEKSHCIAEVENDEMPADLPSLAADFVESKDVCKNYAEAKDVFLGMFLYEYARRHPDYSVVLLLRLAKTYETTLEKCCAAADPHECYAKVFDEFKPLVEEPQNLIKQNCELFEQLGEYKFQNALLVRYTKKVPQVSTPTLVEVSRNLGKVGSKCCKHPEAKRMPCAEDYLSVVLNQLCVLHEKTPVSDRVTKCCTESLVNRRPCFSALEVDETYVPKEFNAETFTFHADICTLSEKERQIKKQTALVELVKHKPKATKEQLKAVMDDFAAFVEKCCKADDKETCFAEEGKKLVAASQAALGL
Experimental: To study the binding kinetics of the albumin-binding maytansinoids in pooled human plasma and pooled human whole blood, the compounds were incubated together with pooled human plasma at 37° C. and samples were taken at specified time points. Remaining albumin-binding maytansinoids were quantitated by HPLC.
To study the binding kinetics in human whole blood, the blood (K2EDTA, 36 donors, Zen-Bio; 900 μL) was preincubated at 37° C. for 30 min in a heating block. To study the binding kinetics in pooled human plasma, the pooled whole blood was centrifuged (10 min, 1811 g), the supernatant plasma was collected and then preincubated at 37° C. for 30 min.
The albumin-binding maytansinoid was added to the preincubated whole blood/plasma sample as a 10-fold dilution in PBS of a 1.2 mM stock solution in 2.5% propylene glycol in 10 mM sodium phosphate buffer and 1.48 mM citrate (100 μL) to produce a 12.0 μM solution of the respective albumin-binding maytansinoid. Samples (190 μL) were taken after 15 s, 2 min, 4 min, 8 min and 15 min. The samples were directly added to 760 μL MeCN containing maytansine (5 μg/mL) as an internal standard and vortexed for 1 min. After centrifugation (1 min at 12,044 g) the supernatant (850 μL) was concentrated under high vacuum. The residue was taken up in DMSO/water (1:1 v/v; 95 μL) and then analyzed by RP-HPLC. Percentage of binding was determined by comparison of the area under the curve (AUC) at 220 nm of the albumin-binding maytansinoid relative to a control sample (100% value) in PBS buffer. All experiments were performed in triplicates.
HPLC method: Phenomenex Kinetex Polar C18, 2.6 μm, 100 Å, 150×4.6 mm; eluent A (95:5 5 mM ammonium acetate: MeCN) and eluent B (5:95 5 mM ammonium acetate: MeCN) eluting with a gradient of eluent B (30% 0-0.5 min, 30-95% 0.5-9.0 min, 95% 11.0 min, 95-30% 11.0-14.5 min, 30% 15.0 min, flow rate=1.0 mL/min). Column oven temperature ambient temperature; autosampler temperature 4° C.; 50 μL of injection volume.

[1] = Stability and release kinetics of maytansinoid-HSA conjugates in buffer solution at pH 4.0 and pH 7.4; format: physicochemical; conditions: maytansinoid-HSA conjugate, PBS pH 7.4, 37° C.
Experimental: For preparing HSA conjugates of albumin-binding maytansinoids, HSA (200 μM: 361.8 μL, 1078 μM free Cys34; 100 μM: 180.9 μL, 1078 μM free Cys34) was diluted with PBS buffer (4 mM sodium phosphate, 150 mM NaCl, pH 7.4) (200 μM: 678.2 μL; 100 μM: 859.1 μL) and DMSO (200 μM: 130.0 μL; 100 μM: 195.0 μL) and incubated in a heating block at 37° C. for 30 minutes. The albumin-binding maytansinoid was added as a 2 mM stock solution in DMSO (200 μM: 130.0 μL; 100 μM: 65.0 μL) to the preincubated HSA sample to produce a 200 μM or 100 μM solution of maytansinoid-prodrug and 300 μM or 150 μM of free Cys34. The mixture having a pH of 7.4 was allowed to react for 10 min at 37° C. and was then analyzed hourly for 24 hours by RP-HPLC (Phenomenex Aeris WP XB-C18, 3.6 μm, 250×4.6 mm).
For studying the release kinetics at pH 4.0 the mixture was acidified with a mixture of 50 mM sodium acetate buffer pH 3.0 (200 μM: 119.3 μL; 100 μM: 125.2 μL) and 1 M HCl (200 μM: 12.7 μL; 100 μM: 6.8 μL) to reach pH 4.0. The mixture was subsequently analyzed hourly for 24 hours by RP-HPLC (Phenomenex Aeris WP XB-C18, 3.6 μm, 250×4.6 mm).
The following RP-HPLC conditions were used: Phenomenex Aeris WP XB-C18 3.6 μm, 250×4.6 mm; eluent A (100% 20 mM Tris buffer pH 8.0) and eluent B (90:10, MeCN: water) eluting with a gradient of eluent B (25% 0-0.5 min, 25-35% 0.5-2.5 min, 35-85% 2.5-16 min, 85-95% 16-17 min, 95% 17-20 min, 95-25% 20-25 min, 25% 25-30 min, flow rate 1.0 mL/min). Column oven temperature 37° C.; autosampler temperature 37° C.; 20 μL of injection volume.
To quantify the percentage of free drug released, standard curves of the free maytansinoids were prepared at different concentrations (200 μM, 100 μM, 50 μM, 25 μM and 12.5 μM). The area under the curve (AUC) was determined at 250 nm.

COc1cc2cc(c1Cl)N(C)C(=O)C[C@H](OC(=O)COc1cccc(/C(C)=N/NC(=O)c3ccc(NC(=O)CCCCCN4C(=O)C=CC4=O)cc3S(=O)(=O)O)c1)[C@]1(C)O[C@H]1[C@H](C)[C@@H]1C[C@@](O)(NC(=O)O1)[C@H](OC)/C=C/C=C(\C)C2 [Compound 31]
fraction unbound (albumin; blood, pooled human whole blood, 15 s): 0.008 | fraction unbound (albumin; blood, pooled human whole blood, 8 min): 0.007 | fraction unbound (albumin; plasma, pooled human plasma, 15 s): 0.08 | fraction unbound (albumin; plasma, pooled human plasma, 8 min): 0.014 | free maytansinoid after 24 h at pH 7.4 ([1]; measured at 100 μM): 3.7%** | free maytansinoid after 24 h at pH 7.4 ([1]; measured at 200 μM): 4.0%*
